PubChem BioAssay (NCI)
Where “and” joins values, the source holds several entries; their conditions need not be identical. Equal values may be shown once.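 Assay format: 96-well plates, 48-hour exposure. Abbreviation: GI50, concentration required for 50% inhibition of growth. TGI: total growth inhibition.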

Tests used:
Experiment in all cases: DTP human tumour cell line panel, 48 h
[1] = system: UACC-257 melanoma
[2] = system: CCRF-CEM leukemia
[3] = system: TK-10 renal
[4] = system: ACHN renal
[5] = system: HL-60(TB) leukemia
[6] = system: SK-MEL-28 melanoma
[7] = system: NCI/ADR-RES ovarian
[8] = system: OVCAR-5 ovarian
[9] = system: SK-OV-3 ovarian
[10] = system: OVCAR-4 ovarian
[11] = system: IGROV1 ovarian
[12] = system: HS 578T breast
[13] = system: HT29 colon
[14] = system: MDA-MB-231 breast
[15] = system: U251 CNS
[16] = system: A498 renal
[17] = system: RPMI-8226 leukemia

Compound	TGI [1]	TGI [2]	TGI [3]	TGI [4] [µM]	TGI [5]	TGI [6] [µM]	TGI [7]	TGI [8]	TGI [9]	TGI [10] [µM]	TGI [11]	TGI [12]	TGI [13] [µM]	TGI [14]	TGI [15] [µM]	TGI [16] [µM]	TGI [17] [µM]	GI50 [14]
CNc1cc(Cl)ccc1C(=O)N1CCC[C@H]1CO	> 100 µM	> 100 µM	> 100 µM	> 100	> 100 µM	> 100	> 100 µM	> 100 µM	> 100 µM	> 100	> 100 µM	> 100 µM	> 100	> 100 µM	> 100	> 100	–	–
COc1c(OC)c(OC)c2c(=O)c(OC)c(-c3ccc4c(c3)OCO4)oc2c1OC	> 100 µM	> 100 µM	> 100 µM	> 100	33.4 µM	> 100	> 100 µM	> 100 µM	> 100 µM	> 100	> 100 µM	> 100 µM	> 100	> 100 µM	> 100	> 100	–	–
N#CC(C#N)[C@@H]1CCC=C(Sc2ccccc2)[C@H]1Sc1ccccc1	6.48 µM	7.26 µM	4.59 µM	6.07	18.7 µM	7.57	8.37 µM	20.3 µM	16.3 µM	17.2	13.6 µM	26.6 µM	13.8	11.6 µM	23.6	26.9	–	–
O=C1c2ccccc2C(=O)c2c1sc1nc3ccccc3n21	3.64 µM	5.48 µM	12.7 µM	6.27	> 100 µM	–	4.7 µM	4.28 µM	19.1 µM	–	6.34 µM	0.0525 µM	13.8	9.12 µM	9.37	23.3	5.26	–
COC(OC)[C@@H]1OC[C@H](n2ccc(=O)[nH]c2=O)[C@H]1O	> 100 µM	> 100 µM	> 100 µM	> 100	–	> 100	> 100 µM	> 100 µM	> 100 µM	> 100	> 100 µM	> 100 µM	> 100	> 100 µM	> 100	> 100	> 100	–
CC(O)/C=C/C1OC(=O)CC1Nc1ccc(C=O)cc1 (stereo unspecified)	> 100 µM	> 100 µM	> 100 µM	> 100	–	> 100	> 100 µM	> 100 µM	> 100 µM	> 100	> 100 µM	> 100 µM	> 100	> 100 µM	> 100	> 100	90.9	–
O=C(/C=C/c1ccc(O)c(O)c1)O[C@H]1CCCC[C@@H]1OC(=O)/C=C/c1ccc(O)c(O)c1	77 µM	61 µM	57.7 µM	38.3	–	44.1	91.2 µM	33.9 µM	41.3 µM	> 100	55 µM	> 100 µM	–	> 100 µM	> 100	43.2	> 100	–
CC(=S)NC=C(C(N)=O)C(N)=O	> 100 µM	> 100 µM	–	> 100	> 100 µM	> 100	> 100 µM	> 100 µM	> 100 µM	–	> 100 µM	> 100 µM	> 100	> 100 µM	> 100	> 100	> 100	–
CC(=O)OC1OC(C2c3cccc(O)c3C(=O)c3c(O)cc(CO)cc32)C(O)C(O)C1O (stereo unspecified)	32.8 µM and 33.7 µM	21.5 µM and 17.9 µM	19.4 µM and 22.4 µM	–	17.3 µM and 12.7 µM	9.63	44.7 µM and 28.1 µM	11.7 µM and 18.1 µM	18.3 µM and 90.8 µM	> 100	20.8 µM and 21.1 µM	7.38 µM and 7.12 µM	> 100	7.54 µM and 8.88 µM	22.6	26.4	–	1.51 µM and 3.4 µM
C#C[C@@H](OC(=O)c1ccc([N+](=O)[O-])cc1)[C@@H]1C[C@H]2O[C@@H]([C@H](C/C=C/CC)OC(=O)c3ccc([N+](=O)[O-])cc3)C[C@H]2O1	> 100 µM	> 100 µM	> 100 µM	> 100	–	> 100	> 100 µM	> 100 µM	> 100 µM	> 100	> 100 µM	> 100 µM	> 100	> 100 µM	> 100	> 100	> 100	–
O=C(c1ccccc1)N1CCC(Nc2cccnc2)O1 (stereo unspecified)	–	> 100 µM	> 100 µM	> 100	> 100 µM	> 100	> 100 µM	> 100 µM	> 100 µM	–	> 100 µM	> 100 µM	> 100	> 100 µM	> 100	> 100	–	–
CN(C)c1cccc2c(S(=O)(=O)NCCCNCCN)cccc12	> 100 µM	46 µM	–	> 100	43.8 µM	> 100	> 100 µM	> 100 µM	> 100 µM	> 100	> 100 µM	76.4 µM	> 100	> 100 µM	> 100	91	–	–
